Read-outs that look alike come from different tables or passages of the source. Blank lines part the entries; values can stand above or below the substance they belong to.
What was measured:
EGF pathway = test: Pathway ultrasensitivity test (EC90/EC10 of activator agent), impedance biosensor; type: cell-based, human; settings: for EC90: read-out: EC90 Concentration
Source text: (§1) Biosensor and transducer: A 96-well impendence E-Plate (ACEA, San Diego, CA) was placed onto an xCELLigence RTCA MP Station impendence biosensor (ACEA, San Diego, CA). The biosensor measured simultaneously the impedance of every well. The change in impedance for a particular well is proportional to the number of cells and type of attachment the cells have with the impedance microplate. Changes in impedance indicate a response to activation of these small cell populations. Coatings: The 96-E-Plate were wells were coated with fibronectin and or collagen. Collagen is purchased from Advanced BioMatrix (Carlsbad, CA) and fibronectin from Sigma-Aldrich (St. Louis, MO). Tissue and cell samples: Five different samples of human cells from breast tumors (R131, R39, R36, R20, R82) and two different samples of human cells from non-small cell lung cancer (NSCLC) tumors were studied (C15 and C23). Any biomarkers that are used to guide selection of targeted therapy are listed in Table 20 for each patient if they were present. Signaling Pathways activator: NRG1, a HER3 agonist, was used to stimulate the HER3 pathway in each of the five breast cancer cell samples. The EC90 and EC10 concentrations of the signaling pathway activator agent were also derived for each breast cancer sample.
(§2) In each of the two NSCLC cell samples, four different activating agents were used to stimulate either the EGF or HER3 pathways. The EC90 and EC10 concentrations of the signaling pathway activator agent were also derived for each NSCLC cell sample.
(§3) Other Reagents: Standard media antibiotics (e.g. penicillin, streptomycin) and other buffers were purchased and used as delivered from ATCC (Manassas, VA, USA) or Life Technologies (Grand Island, NY). Procedure: For each test of a patient cell sample with two different concentrations of signaling pathway activator, six wells were seeded with approximately 15,000 cells in 120 uL culture media. […] The impedance recording of attachment and adhesion change was performed at 37° C., 5% CO2. Data was recorded on a continuous basis throughout the test, where the data presented is from the initial baseline level of cell attachment compared to the subsequent effects following the additions of two concentrations of the signaling pathway activator agent on the 12 different patient samples. Results:
(§4) For each patient cell sample tested, output values were calculated for the signaling pathway activity measured after addition of the two different concentrations of the signaling pathway activator agent. To determine the sensitivity of the signaling pathway to the signaling pathway activator agent, the sensitivity was calculated using the two output values. When the ratio of the EC90 to EC10 is less than 81, the pathway is considered to be ultra-sensitive; otherwise the pathway is considered to be normally sensitive.

HER3 pathway = test: as above; type: cell-based, human; settings: for EC90: read-out: EC90 Concentration
Source text: as §1, §2, §3, §4

[1] = NSCLC cell sample C15, EGF pathway
[2] = NSCLC cell sample C23, EGF pathway
[3] = NSCLC cell sample C23, HER3 pathway

Sensitivity Calculation Result (ratio of the EC90 to EC10 of activating agent) (EGF pathway; [1]): 65.65
EC90 (EGF pathway; NSCLC tumor cell sample C15): 3 nM
Substance: Amphiregulin
Pathway Sensitivity Status (normal or ultra) (EGF pathway; [1]): Ultra (When the ratio of the EC90 to EC10 is less than 81, the pathway is considered to be ultra-sensitive)
EC10 Concentration (EGF pathway; NSCLC tumor cell sample C15): 0.0457 nM

Sensitivity Calculation Result (ratio of the EC90 to EC10 of activating agent) (HER3 pathway; [3]): 11.19
EC90 (HER3 pathway; NSCLC tumor cell sample C23): 4.46 nM
Sensitivity Calculation Result (EC90/EC10 ratio) (HER3 pathway; breast tumor cell sample R20): 18.44
EC90 (HER3 pathway; breast tumor cell sample R20): 2.14 nM
Sensitivity Calculation Result (EC90/EC10 ratio) (HER3 pathway; breast tumor cell sample R36): 27.61
EC90 (HER3 pathway; breast tumor cell sample R36): 1.96 nM
Sensitivity Calculation Result (EC90/EC10 ratio) (HER3 pathway; breast tumor cell sample R39): 45.96
EC90 (HER3 pathway; breast tumor cell sample R39): 1.6 nM
Sensitivity Calculation Result (EC90/EC10 ratio) (HER3 pathway; breast tumor cell sample R82): 95.1
EC90 (HER3 pathway; breast tumor cell sample R82): 1.79 nM
Sensitivity Calculation Result (EC90/EC10 ratio) (HER3 pathway; breast tumor cell sample R131): 38.32
EC90 (HER3 pathway; breast tumor cell sample R131): 1.23 nM
Substance: NRG1
Pathway Sensitivity Status (normal or ultra) (HER3 pathway; [3]): Ultra (When the ratio of the EC90 to EC10 is less than 81, the pathway is considered to be ultra-sensitive)
EC10 Concentration (HER3 pathway; NSCLC tumor cell sample C23): 0.399 nM
EC10 Concentration (HER3 pathway; breast tumor cell sample R20): 0.236 nM
Pathway Sensitivity Status (normal or ultra) (HER3 pathway; breast tumor cell sample R20): Ultra (When the ratio of the EC90 to EC10 is less than 81, the pathway is considered to be ultra-sensitive)
EC10 Concentration (HER3 pathway; breast tumor cell sample R36): 0.215 nM
Pathway Sensitivity Status (normal or ultra) (HER3 pathway; breast tumor cell sample R36): Ultra (When the ratio of the EC90 to EC10 is less than 81, the pathway is considered to be ultra-sensitive)
EC10 Concentration (HER3 pathway; breast tumor cell sample R39): 0.173 nM
Pathway Sensitivity Status (normal or ultra) (HER3 pathway; breast tumor cell sample R39): Ultra (When the ratio of the EC90 to EC10 is less than 81, the pathway is considered to be ultra-sensitive)
EC10 Concentration (HER3 pathway; breast tumor cell sample R82): 0.193 nM
Pathway Sensitivity Status (normal or ultra) (HER3 pathway; breast tumor cell sample R82): Normal (otherwise the pathway is considered to be normally sensitive)
EC10 Concentration (HER3 pathway; breast tumor cell sample R131): 0.133 nM
Pathway Sensitivity Status (normal or ultra) (HER3 pathway; breast tumor cell sample R131): Ultra (When the ratio of the EC90 to EC10 is less than 81, the pathway is considered to be ultra-sensitive)

The next lines start with the substance.

Substance: Betacellulin
Pathway Sensitivity Status (normal or ultra) (EGF pathway; [1]): Ultra (When the ratio of the EC90 to EC10 is less than 81, the pathway is considered to be ultra-sensitive)
Sensitivity Calculation Result (ratio of the EC90 to EC10 of activating agent) (EGF pathway; [1]): 41.67
Pathway Sensitivity Status (normal or ultra) (EGF pathway; [2]): Ultra (When the ratio of the EC90 to EC10 is less than 81, the pathway is considered to be ultra-sensitive)
Sensitivity Calculation Result (ratio of the EC90 to EC10 of activating agent) (EGF pathway; [2]): 29.39
EC10 Concentration (EGF pathway; NSCLC tumor cell sample C15): 0.0024 nM
EC90 (EGF pathway; NSCLC tumor cell sample C15): 0.1 nM
EC10 Concentration (EGF pathway; NSCLC tumor cell sample C23): 0.0066 nM
EC90 (EGF pathway; NSCLC tumor cell sample C23): 0.194 nM

Substance: HB-EGF
Pathway Sensitivity Status (normal or ultra) (EGF pathway; [1]): Ultra (When the ratio of the EC90 to EC10 is less than 81, the pathway is considered to be ultra-sensitive)
Sensitivity Calculation Result (ratio of the EC90 to EC10 of activating agent) (EGF pathway; [1]): 63.75
Pathway Sensitivity Status (normal or ultra) (EGF pathway; [2]): Ultra (When the ratio of the EC90 to EC10 is less than 81, the pathway is considered to be ultra-sensitive)
Sensitivity Calculation Result (ratio of the EC90 to EC10 of activating agent) (EGF pathway; [2]): 66.67
EC10 Concentration (EGF pathway; NSCLC tumor cell sample C15): 0.0016 nM
EC90 (EGF pathway; NSCLC tumor cell sample C15): 0.102 nM
EC10 Concentration (EGF pathway; NSCLC tumor cell sample C23): 0.003 nM
EC90 (EGF pathway; NSCLC tumor cell sample C23): 0.2 nM

Substance: TGF alpha
Pathway Sensitivity Status (normal or ultra) (EGF pathway; [1]): Ultra (When the ratio of the EC90 to EC10 is less than 81, the pathway is considered to be ultra-sensitive)
Sensitivity Calculation Result (ratio of the EC90 to EC10 of activating agent) (EGF pathway; [1]): 44.15
Pathway Sensitivity Status (normal or ultra) (EGF pathway; [2]): Ultra (When the ratio of the EC90 to EC10 is less than 81, the pathway is considered to be ultra-sensitive)
Sensitivity Calculation Result (ratio of the EC90 to EC10 of activating agent) (EGF pathway; [2]): 21.25
EC10 Concentration (EGF pathway; NSCLC tumor cell sample C15): 0.0082 nM
EC90 (EGF pathway; NSCLC tumor cell sample C15): 0.362 nM
EC10 Concentration (EGF pathway; NSCLC tumor cell sample C23): 0.0088 nM
EC90 (EGF pathway; NSCLC tumor cell sample C23): 0.187 nM
